Experimental data published in paper PMC11502375, “Cytochrome P450 VvCYP76F14 dominates the production of wine bouquet precursors in wine grapes” (Frontiers in Plant Science, 2024).

What was measured:
[1] = biological target: VvCYP76F14 ('Yanniang No.2', Full-Bodied type) (Vitis vinifera, UniProt A0A1B2ZBX8, E431G, form not given); details: 1 mM NADPH; ATR1 reductase (VvCYP76F14:ATR1 2:1); 100 mM Na+/K+ phosphate pH 5.0; 25 °C; 1 h
[2] = biological target: VvCYP76F14 ('Yanniang No.2', Full-Bodied type) (Vitis vinifera, UniProt A0A1B2ZBX8, I173L, form not given); details: 1 mM NADPH; ATR1 reductase (VvCYP76F14:ATR1 2:1); 100 mM Na+/K+ phosphate pH 5.0; 25 °C; 1 h
Chain of VvCYP76F14 ('Yanniang No.2', Full-Bodied type) (Vitis vinifera, UniProt A0A1B2ZBX8, I173L, form not given) (A0A1B2ZBX8 entry or part of it I173L, form open): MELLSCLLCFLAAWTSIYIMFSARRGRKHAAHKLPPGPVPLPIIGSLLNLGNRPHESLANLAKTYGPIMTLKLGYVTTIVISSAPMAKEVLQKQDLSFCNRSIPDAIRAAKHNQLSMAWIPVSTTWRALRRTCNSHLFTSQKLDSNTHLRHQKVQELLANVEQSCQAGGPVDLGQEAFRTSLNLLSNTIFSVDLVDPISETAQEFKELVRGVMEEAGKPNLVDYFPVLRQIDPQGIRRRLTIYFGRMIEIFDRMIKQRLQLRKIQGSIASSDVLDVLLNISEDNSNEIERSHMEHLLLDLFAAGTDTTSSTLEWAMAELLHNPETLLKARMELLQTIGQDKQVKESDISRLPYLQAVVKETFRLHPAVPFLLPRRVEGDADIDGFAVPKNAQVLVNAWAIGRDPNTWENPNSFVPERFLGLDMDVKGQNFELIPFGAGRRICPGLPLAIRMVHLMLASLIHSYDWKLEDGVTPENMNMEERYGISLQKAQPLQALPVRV

[3] = biological target: T1, VvCYP76F14 ('Marselan', Aromatic type) (Vitis vinifera, UniProt A0A1B2ZBX8); test: substrate depletion by HPLC-HRMS; format: biochemical; details: 1 mM NADPH; ATR1 reductase; pH 5.0; 25 °C; 1 h
T1 construct: 499 residues; natural allele, versus Yanniang No.2: N46S/N111K/R175Q/L222V/M264I/S286N/L298V/K325T/E378G/T380A/E383D/T386A; MBP fusion in E. coli, MBP cut off with TEV protease; reductase partner Arabidopsis ATR1
T1 sequence (A0A1B2ZBX8 entry or part of it): as the sequence (A0A1B2ZBX8 entry or part of it I173L, form open) above, with L173I counted along it

[4] = biological target: VvCYP76F14 ('Yanniang No.2', Full-Bodied type) (Vitis vinifera, UniProt A0A1B2ZBX8, L351V, form not given); details: 1 mM NADPH; ATR1 reductase (VvCYP76F14:ATR1 2:1); 100 mM Na+/K+ phosphate pH 5.0; 25 °C; 1 h
Chain of VvCYP76F14 ('Yanniang No.2', Full-Bodied type) (Vitis vinifera, UniProt A0A1B2ZBX8, L351V, form not given) (A0A1B2ZBX8 entry or part of it L351V, form open): as the sequence (A0A1B2ZBX8 entry or part of it I173L, form open) above, with L173I, L351V counted along it

[5] = biological target: VvCYP76F14 ('Yanniang No.2', Full-Bodied type) (Vitis vinifera, UniProt A0A1B2ZBX8); details: 1 mM NADPH; ATR1 reductase (VvCYP76F14:ATR1 2:1); 100 mM Na+/K+ phosphate pH 5.0; 25 °C; 1 h
Chain of VvCYP76F14 ('Yanniang No.2', Full-Bodied type) (Vitis vinifera, UniProt A0A1B2ZBX8) (A0A1B2ZBX8 entry or part of it): as the sequence (A0A1B2ZBX8 entry or part of it I173L, form open) above, with L173I counted along it

Chain of VvCYP76F14 ('Yanniang No.2', Full-Bodied type) (Vitis vinifera, UniProt A0A1B2ZBX8, E431G, form not given) (A0A1B2ZBX8 entry or part of it E431G, form open): as the sequence (A0A1B2ZBX8 entry or part of it I173L, form open) above, with L173I, E431G counted along it

Km [1] | Km [2] | Km [4] | Km [5] | SMILES | specific activity [3]
65 ± 6.98 µM | 76.7 ± 7.22 µM | 30.6 ± 2.85 µM | 29.1 ± 2.66 µM | C=CC(C)(O)CC/C=C(\C)CO (centres unmarked) [(E)-8-hydroxylinalool] | (E)-8-hydroxylinalool (dehydrogenation), and (E)-8-oxolinalool (carboxylation) as substrates
88.5 ± 9.85 µM | 90.8 ± 12.2 µM | 41.9 ± 5.24 µM | 41.4 ± 3.93 µM | C=CC(C)(O)CC/C=C(\C)C=O (centres unmarked) [(E)-8-oxolinalool] | –
144 ± 15.6 µM | 151 ± 14.6 µM | 67.6 ± 6.94 µM | 66.2 ± 5.63 µM | C=CC(C)(O)CCC=C(C)C (centres unmarked) [linalool] | All three VvCYP76F14s demonstrated catalytic activity in reactions utilizing linalool (hydroxylation)
